Experimental data: patent US11174249B2, “Cooling composition” (FIRMENICH SA, priority 2017, dated 2021)

Assay: Solubility of compound of formula (I) in flavor solvents (Crystalline PV instrument, temperature solubility curve)
Type: physicochemical
Details: 22° C.
Experimental: A precise amount of the powder was weighed into a transparent 8 mL tube, 3 g of solvent was added, and the tube was sealed with a cap equipped with an integrated overhead stirrer. The tube was immediately transferred to a Crystalline PV instrument (Technobis Crystallization Systems, The Netherlands), and placed into a precooled reactor at 3° C. The sample was heated and stirred in the reactor at a rate of 0.1° C./min up to 60° C. Each reactor of the Crystalline PV instrument is equipped with an LED sensor and a digital camera, and data is acquired as real-time transmittance to detect turbidity or as video images for visualization. The solubility temperature is reached when all particles have dissolved. In order to establish a temperature solubility curve, at least 4 samples with different concentrations are measured. The data are fitted to an exponential curve according to the model of Hoffmann, and solubility as a function of temperature can be calculated by extrapolation. Under this method, the solubility of N-(1H-pyrazol-3-yl)-N-(thiophen-2-ylmethyl)-2-(p-tolyloxy)acetamide in different solvents, which could be used in flavor application, was measured.

Solubility (in Ethyl lactate) [%] | Solubility (in Augeo Clean Multi) [%] | Solubility (in Dowanol TPM) [%] | Solubility (in Ethanol abs.) [%] | Solubility (in Mint piperita) [%] | Solubility (in PG) [%] | Solubility (in triacetin) [%] | Solubility (in triethyl citrate) [%] | SMILES
26.1 | – | – | – | – | – | – | – | CCc1ccc(OCC(=O)N(Cc2cccs2)c2cc[nH]n2)cc1 [2-(4-ethylphenoxy)-N-(1H-pyrazol-3-yl)-N-(thiophen-2-ylmethyl)acetamide]
8.6 | 5.7 | 5.4 | 3.3 | 2.1 | 0.4 | 1.2 | 3.1 | Cc1ccc(OCC(=O)N(Cc2cccs2)c2ccn[nH]2)cc1 [N-(1H-pyrazol-3-yl)-N-(thiophen-2-ylmethyl)-2-(p-tolyloxy)acetamide]
